# PMC12194305, “Assessing Bioconcentration and Biotransformation of BDE-47 In Vitro: The Relevance of Bioavailable and Intracellular Concentrations” (Journal of Xenobiotics, 2025)
# Several values for one entry are separate records, joined by “and”; a condition that tells them apart may be missing. Equal values may be shown once.
# How the values were obtained:
# zebrafish = test: IVIVE-BCF model with zebrafish default parameters; format: in vitro ADME; settings: for BCFIVIVE, ZF: ZFL cells, zebrafish parameters
# Source text: One of the objectives was to assess whether cell lines can be used within the BCF-IVIVE model, relying on intrinsic clearance in vitro, to estimate the biotransformation rate which is subsequently extrapolated to adult fish. This approach is based on the model developed by Nichols et al. and is endorsed by the OECD guideline 319A [10] and OECD 2018a. Briefly, the log10-transformed substrate experimental concentrations in the medium (Cmed) were plotted against time, and the first-order elimination rate constant (ke, h^−1) was determined as −2.3 × slope of the log-linear decline. Black et al. indicate that a correction to the elimination rate constant (ke) should be applied when the following conditions are met: (i) abiotic losses from volatilization, calculated by comparing the recovery of negative control samples (“no cells”) at each exposure time to the initial time, fall outside the acceptable range of 80–120%, (ii) the loss process follows first order kinetics, and (iii) the ratio of ke and the volatilization rate constant (kvolat) is below 10 (ke/kvolat < 10). Then, the constant corrected for losses due to volatilization (ke,loss) was determined as −2.3 × the difference of the slopes of the sample and the loss control of the log-linear descent. The in vitro constant was then extrapolated to obtain an in vivo metabolization constant (kMET). This was done using experimental cell concentration (CHEP, 10^6 cells/mL) and default parameters derived from rainbow trout. In this study, in addition to estimating BCF with the official model parameters derived from rainbow trout (BCFIVIVE,RT), BCF was also estimated with the literature-derived parameters for zebrafish (BCFIVIVE,ZF), due to the use of ZFL cells. Finally, the BCF was estimated by the ratio of concentration in the organism to concentration in the medium, following the standardized model. The concentration in the organism was predicted using the one-compartment model given by Arnot and Gobas, which includes the rate constants describing chemical uptake (k1), loss through the gills (k2), fecal egestion (kE), growth rate (kG) and metabolization rate (kMET). Except for kMET, which is estimated experimentally in vitro, the rest are only dependent on the log KOW of the compound. On the other hand, due to the use of cell lines, the free concentration estimated was introduced instead of the total concentration in the medium (CW,TOT).
# [1] = design: method as in PMID 37289209; settings: initial exposure 20 mg·L^−1, HepG2 cell assay at 37 °C; cited from earlier work
# rainbow trout = test: IVIVE-BCF model with rainbow trout default parameters; format: in vitro ADME; settings: k1 and k2 from experimental Ccell and Cfree
# [2] = cited from earlier work
# ZFL cells = test: Cell viability by MTT assay; format: cell-based, zebrafish; settings: 72 h
# Protocol: Cell viability was determined by MTT assay. A total of 10,000 cells/well were seeded in 96-well plates under culture conditions for 24 h. Then, the culture medium was replaced by contaminated medium (200 µL) with range of concentrations of BDE-47 (0.2–10 mg·L^−1). Three independent replicates with the same experimental conditions, a control group (cells without pollutant) and a blank group (only cell culture medium) were performed. After 72 h, 20 µL of MTT solution (5 mg·mL^−1) was added to provide a final concentration of 0.5 mg·mL^−1 and incubated for 4 h. Formazan produced in the MTT assay was dissolved using 100 μL DMSO, and absorbance was recorded at 595 nm. The results have been subsequently used for the design of the bioaccumulation and biotransformation experiment.
# [3] = Experimental determination of free bioavailable concentration (Cfree,exp) in exposure medium by SPME; format: in vitro ADME; settings: for Cfree, exp: 28 °C, 72 h
# Protocol: In parallel with the exposure experiment for the evaluation of bioaccumulation and biotransformation described in the previous sections, an experiment was performed to estimate experimentally the free bioavailable concentration (Cfree,exp) in the test medium. For this purpose, an experiment was designed to simulate the test conditions, and Cfree was determined using solid-phase microextraction (SPME), following the fiber method developed by Henneberger et al..
# PDMS-coated glass microfibers (30 µm thick, 13.19 µL/m coating volume) were cut into 1.5 cm pieces and cleaned in methanol for more than 24 h prior to the experiment, with the solvent replaced at least three times. The cleaned and dried fiber was placed in a glass vial with 1 mL of sample exposure medium containing 1.8 and 2.6 mg·L^−1 BDE-47. Three replicates were prepared for each condition. A portion of the initial sample was stored at −20 °C until analysis. The vials were then sealed and incubated with rotation at 28 °C for 72 h until equilibrium of BDE-47 distribution among the fiber, medium, and binding to the predominant serum protein of the culture (Bovine serum albumin, BSA) was reached. Once at equilibrium, the fibers were extracted from the vials and desorbed with 400 µL isooctane for 24 h with rotation. Finally, the extract was analyzed by GC-MS-µECD, as described in Section 2.5. The concentration of BDE-47 in the initial sample (Cmed,0h) and in the resulting media after equilibration (Cmed,eq) was determined according to the procedure described in Section 2.5, to confirm the actual mass balance.
# Since this study evaluates and discusses the behavior of BDE-47 in comparison to observations from a previous study with phenanthrene, as explained in the introduction section, the experimental Cfree of phenanthrene was also determined, as it had not been measured previously. In this case, the difference in the process was that PA fibers (36 µm thick, 16.71 µL/m coating volume) were used. Samples of 10 and 20 mg·L^−1 PHE were prepared, and the fibers and samples were incubated for 24–48 h until equilibrium was reached, and desorbed with hexane for 3 h.
# To determine the free concentration, concentration in the SPME fiber (Cfiber) was first estimated using Equation (1) from the concentration measured in the desorption extract (Cdes), the desorption volume (Vdes) and the coating volume of the fiber (Vfiber). This volume was estimated according to the coating volume and the length of the fiber.(1) Cfiber=Cdes·Vdes/Vfiber
# Next, Cfree,exp was determined at the time before the SPME fiber was added to the system, according to Equation (2). For this, the concentration measured in the fiber equilibrated with the medium (PDMS-BDE-47-BSA or PA-PHE-BSA), the concentration measured in the initial sample (Cmed,0h), and the partition constant of the equilibrium formed between the fiber and the medium (log DPDMS/medium; BDE-47 = 5.84 [25]; log DPA/medium; PHE = 6.69 [26]) were used.(2) Cfree=Cmed,0h·Vsample/Dfiber/medium·Cmed,0h·Vsample/Cfiber−Vfiber
smiles,measurement,setting,value
"Brc1ccc(Oc2ccc(Br)cc2Br)c(Br)c1 [BDE-47, 2,2′,4,4′-tetrabromodiphenyl ether]",CLH,"zebrafish; 1.8 mg·L-1, ZF",2.01 mL/h/kg
same,"CLIN VITRO, INT","zebrafish; 1.8 mg·L-1, ZF",0.0220 mL/h/106 cells
same,kMET,"zebrafish; 1.8 mg·L-1, ZF",0.0022 day⁻¹
same,CLH,"zebrafish; 2.6 mg·L-1, ZF",0.333 mL/h/kg
same,"CLIN VITRO, INT","zebrafish; 2.6 mg·L-1, ZF",0.0037 mL/h/106 cells
same,kMET,"zebrafish; 2.6 mg·L-1, ZF",0.0004 day⁻¹
same,"BCFIVIVE, ZF",zebrafish; Cnominal 1.8 mg·L^−1,"13,885 L·kg^−1"
same,"BCFIVIVE, ZF",zebrafish; Cnominal 2.6 mg·L^−1,"14,926 L·kg^−1"
same,volatilization loss,[1],14%
same,"BCFIVIVE, RT, exp",rainbow trout; Cnominal 1.8 mg·L^−1,"26,306 L·kg^−1"
same,"BCFIVIVE, RT, exp",rainbow trout; Cnominal 2.6 mg·L^−1,"48,635 L·kg^−1"
same,Henry's law constant (KH),[2]; at 30 °C,1.79 ± 0.21 Pa·m^3·mol^−1
same,log Kow,[2],6.81
same,log DPDMS/medium,[2]; partition constant PDMS fiber/medium,5.84
same,LC30 after applying percentage of Cfree,ZFL cells; bioavailable concentration,0.00055 mg/L
same,concentration decreasing viability by 30% (LC30),"ZFL cells; nominal concentration, 10% FBS",0.45 mg/L
same,concentration decreasing viability by 50% (LC50),"ZFL cells; nominal concentration, 10% FBS",2.03 mg/L
same,"% Cfree, exp","[3]; Cnom 1.8 mg·L^−1, % of total concentration",0.06% and 0.06 ± 0.03%
same,"Cfree, exp","[3]; Cnom 1.8 mg·L^−1, PDMS fiber",(0.4 ± 0.2) µg·L^−1
same,"% Cfree, exp","[3]; Cnom 2.6 mg·L^−1, % of total concentration",0.08% and 0.079 ± 0.003%
same,"Cfree, exp","[3]; Cnom 2.6 mg·L^−1, PDMS fiber",(1.14 ± 0.04) µg·L^−1
